Experimental data from BindingDB's records for doi:10.1016/s0014-2999(98)00241-6 (Mcgill University, 1998).

Biological target: Norepinephrine transporter (Rattus norvegicus, UniProt Q9JIA2)

Structure (SMILES) | Ki
c1ccc2c(CCC3CCNCC3)c[nH]c2c1 | 2760 nM
COCCCC/C(=N\OCCN)c1ccc(C(F)(F)F)cc1 [(1E)-5-methoxy-1-[4-(trifluoromethyl)phenyl]pentan-1-one O-(2-aminoethyl)oxime] | 1360 nM
